Experimental data published in PMC10544575, “Inhibitory mechanism of vortioxetine on CYP450 enzymes in human and rat liver microsomes” (Frontiers in Pharmacology, 2023).
Like-named read-outs stand apart in the source and are kept apart here.

Assays:
Format in all cases: in vitro ADME
CYP2C-2 = assay: IC50 of vortioxetine on CYP2C-2 (losartan) in RLMs; details: rat, rat liver microsomes, probe losartan
Procedure: (§1) The components of the incubation system were as follows: 0.20 mg/mL HLMs or 0.20 mg/mL RLMs, 0.1 M Tris-HCl, vortioxetine, and the probe substrates of each enzyme. In the study of Km’s (Michaelis–Menten constant) experiment, midazolam (1, 2, 5, 10, 20, 50 and 100 μM in HLMs and RLMs) corresponded to CYP3A4/3A; bupropion (10, 20, 50, 100, 200, 500, 1,000 and 2000 μM in HLMs; 1, 2, 5, 10, 20, 50, 100 and 200 μM in RLMs) corresponded to CYP2B6/2B; amodiaquine (5, 10, 20, 50, 100 and 200 μM in HLMs; 10, 20, 50, 100, 200, 500 μM in RLMs) corresponded to CYP2C8/CYP2C-1; losartan (1, 2, 5, 10, 20, 50, 100, 200 μM in HLMs; 10, 20, 50, 100, 200, 500 and 1,000 μM in RLMs) corresponded to CYP2C9/CYP2C-2; mephenytoin (20, 50, 100, 200, 500 and 1,000 μM in HLMs; 5, 10, 20, 50, 100, 200, 500 and 1,000 μM in RLMs) corresponded to CYP2C19/CYP2C-3; and dextromethorphan (1, 2, 5, 10, 20, 50 and 100 μM in HLMs and RLMs) corresponded to CYP2D6/CYP2D. […]
(§2) All experiments results were detected by UPLC-MS/MS, which equipped with a Waters Acquity UPLC system (Milford, MA, United States) and a Waters Xevo TQ-S triple quadrupole tandem mass spectrometer with an electrospray ionization source (Milford, MA, United States). […]
(§3) IC50 values and enzyme kinetic parameters were calculated by Graphpad Prism 6.0 (GraphPad software Inc., CA, United States). […] Data for each experiment were expressed as mean ± SD (n = 3).

CYP2B = assay: IC50-shift experiment, CYP2B in RLMs; details: rat, rat liver microsomes, probe bupropion; for IC50 at 30 min: bupropion 20 μM
CYP2C8 = target: T1, CYP2C8 (Homo sapiens, UniProt P10632); assay: IC50 of vortioxetine on CYP2C8 (amodiaquine) in HLMs; parameters: 0.20 mg/mL HLMs; from tissue; host or cells: human liver microsomes
T1 sequence (P10632 1-490): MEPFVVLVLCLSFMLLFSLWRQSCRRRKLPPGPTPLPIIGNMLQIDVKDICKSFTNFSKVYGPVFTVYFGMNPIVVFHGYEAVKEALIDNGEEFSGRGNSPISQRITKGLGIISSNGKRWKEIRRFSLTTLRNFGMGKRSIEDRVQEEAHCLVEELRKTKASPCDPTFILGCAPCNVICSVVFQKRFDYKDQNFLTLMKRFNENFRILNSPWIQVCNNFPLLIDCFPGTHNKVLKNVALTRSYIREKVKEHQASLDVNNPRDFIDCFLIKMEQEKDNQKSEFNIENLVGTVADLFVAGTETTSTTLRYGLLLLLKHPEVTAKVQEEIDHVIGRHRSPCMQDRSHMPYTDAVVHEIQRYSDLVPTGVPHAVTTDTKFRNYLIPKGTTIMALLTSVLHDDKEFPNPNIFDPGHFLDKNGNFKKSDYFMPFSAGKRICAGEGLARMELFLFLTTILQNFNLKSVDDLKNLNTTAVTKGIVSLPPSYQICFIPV
Procedure: as §1, §2, §3

CYP2C9 = CYP2C9 (Homo sapiens, UniProt P11712); assay: IC50 of vortioxetine on CYP2C9 (losartan) in HLMs; parameters: 0.20 mg/mL HLMs; from tissue; host or cells: human liver microsomes
Procedure: as §1, §2, §3

CYP3A4 = CYP3A4 (Homo sapiens, UniProt P08684); assay: IC50-shift experiment, CYP3A4 in HLMs; parameters: 0.20 mg/mL HLMs or 0.20 mg/mL RLMs; from tissue; host or cells: human liver microsomes; details: for IC50: midazolam 4 μM
Procedure: as §1, with “CYP2D6/CYP2D. After 5.0 min of preincubation in the shaking water bath, the reaction was started with the addition of 1.0 mM NADPH. The incubated temperature at 37°C for 30 min. After the incubation, the enzyme reaction was stopped by cooling at −80°C, and 200 μL of acetonitrile and 20 μL of internal standard diazepam (200 ng/mL) were added for protein precipitation.” for “CYP2D6/CYP2D.”
IC50-shift was used to investigate whether the drug produced time-dependent inhibition (TDI) of the enzyme. […] During the experiment, the individual substrates midazolam (4 μM), bupropion (40 μM), amodiaquine (3 μM), losartan (8 μM), mephenytoin (90 μM), and dextromethorphan (10 μM) were determined with vortioxetine IC50-shift in HLMs. […]
as §2, §3

[1] = 30 min preincubation with 1.0 mM NADPH
[2] = 30 min preincubation without NADPH
[3] = inhibitory effect (strength judged by IC50), HLMs

Chain of CYP3A4 (P08684 whole entry): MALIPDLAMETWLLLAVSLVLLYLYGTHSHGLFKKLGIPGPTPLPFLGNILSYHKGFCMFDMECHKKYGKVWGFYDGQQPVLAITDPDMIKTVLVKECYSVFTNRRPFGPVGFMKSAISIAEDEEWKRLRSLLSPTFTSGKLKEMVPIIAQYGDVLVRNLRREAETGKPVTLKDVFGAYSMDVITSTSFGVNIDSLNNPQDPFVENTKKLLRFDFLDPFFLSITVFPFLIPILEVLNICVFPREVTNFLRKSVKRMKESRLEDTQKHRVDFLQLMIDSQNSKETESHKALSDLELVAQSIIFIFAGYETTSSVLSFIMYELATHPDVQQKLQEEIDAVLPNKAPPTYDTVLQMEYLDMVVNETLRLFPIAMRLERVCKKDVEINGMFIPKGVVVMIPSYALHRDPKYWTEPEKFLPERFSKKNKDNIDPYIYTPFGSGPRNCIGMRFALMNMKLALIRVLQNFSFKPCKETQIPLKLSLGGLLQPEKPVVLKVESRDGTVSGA
Chain of CYP2C9 (P11712 whole entry): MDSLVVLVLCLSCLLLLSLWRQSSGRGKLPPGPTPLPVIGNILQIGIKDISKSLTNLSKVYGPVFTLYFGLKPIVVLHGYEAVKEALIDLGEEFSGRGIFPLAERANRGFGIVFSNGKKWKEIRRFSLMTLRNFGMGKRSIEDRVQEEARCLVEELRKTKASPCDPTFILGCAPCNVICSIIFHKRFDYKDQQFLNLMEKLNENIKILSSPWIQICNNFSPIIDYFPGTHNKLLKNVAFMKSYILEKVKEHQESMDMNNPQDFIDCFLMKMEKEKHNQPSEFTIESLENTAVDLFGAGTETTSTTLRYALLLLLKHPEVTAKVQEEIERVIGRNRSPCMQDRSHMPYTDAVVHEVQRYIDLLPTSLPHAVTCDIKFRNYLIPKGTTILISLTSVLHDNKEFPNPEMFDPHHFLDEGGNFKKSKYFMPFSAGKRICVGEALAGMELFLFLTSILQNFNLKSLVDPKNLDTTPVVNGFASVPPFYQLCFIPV

IC50 at 30 min (CYP2C-2; RLMs 0.20 mg/mL, losartan at Km, 37°C, 30 min, read-out: IC50): 0.37 µM
IC50 at 30 min (CYP2C-2; inhibitory effect (strength judged by IC50), RLMs): < 1 µM
IC50 at 30 min (CYP2B; [1]): 5.3 µM
IC50 at 30 min (CYP2B; [2]): 10.1 µM
IC50 (CYP2C8; HLMs 0.20 mg/mL, amodiaquine at Km, 37°C, 30 min, read-out: IC50): 15 µM
IC50 (CYP2C8; [3]): > 10 µM
IC50 (CYP2C9; HLMs 0.20 mg/mL, losartan at Km, 37°C, 30 min, read-out: IC50): 23 µM
IC50 (CYP2C9; [3]): > 10 µM
IC50 (CYP3A4; [1]): 13.7 µM
IC50 (CYP3A4; [2]): 15.5 µM
SMILES: Cc1ccc(Sc2ccccc2N2CCNCC2)c(C)c1 [vortioxetine]
IC50 shift at 30 min (CYP2B; ratio IC50 (−) NADPH to IC50 (+) NADPH, read-out: IC50 fold shift): 1.91
IC50 shift at 30 min (CYP3A4; human, human liver microsomes, probe midazolam (4 μM), ratio IC50 (−) NADPH to IC50 (+) NADPH, read-out: IC50 fold shift): 1.14
